Data set [1] relates to CaSki, HeLa, KYSE30 and WHCO6 cancer cells. Nature of the data set: Cell proliferation assay (MTT), cancer cells. In kind it is cell-based. How it is done: (§1) To assay for cell proliferation after Compound A treatment, 5000 cells/well were plated in 96-well plates and treated with 5, 10 or 15 μM Compound A, after which cell proliferation was monitored every 24 hours for four days, using MTT.
(§2) This effect was sustained for the full 5 day time period, confirming that there was no population of cells that recovered from the treatment.

Data set [2] concerns NFAT transcriptional activity in NFAT-transfected HeLa cells. The data set can be described thus: NFAT luciferase reporter assay. In kind it is cell-based. The following applies: stimulated with TPA and ionomycin (FIGS. 16-20). The method, then: To assay for NFAT luciferase activity, 30 000 HeLa cells were plated per well in 24-well plates, and transfected with 50 ng GFP-NFAT plasmid (Addgene plasmid #24219, gift of Jerry Crabtree (Beals C R, Clipstone N A, Ho S N, Crabtree G R. Nuclear localization of NF-ATc by a calcineurin-dependent, cyclosporin-sensitive intramolecular interaction. Genes Dev 1997 Apr. 1; 11(7):824-34)), 50 ng NFAT-luciferase (Addgene plasmid #10959, gift of Toren Finkel (Ichida M, Finkel T. Ras regulates NFAT3 activity in cardiac myocytes. J Biol Chem 2001 Feb. 2; 276(5):3524-30)), and 5 ng pRL-TK, using 0.4 μl Genecellin™ Transfection Reagent (Celtic Molecular Diagnostics, South Africa). The NFAT-luciferase reporter plasmid contains three tandem repeats of a 30 bp fragment of the IL-2 promoter known to bind NFAT. The following day cells were treated with 10 or 15 μM Compound A and after an overnight incubation, stimulated with 100 nM TPA (Sigma) and 1.3 μM Ionomycin (Santa Cruz Biotechnology, Santa Cruz, Calif., USA) for 5 hours, following which luciferase activity was measured.
An assay for nuclear NFAT following ionomycin and Compound A treatment was carried out, using an NFAT-luciferase reporter that is activated by nuclear NFAT. The phorbol ester TPA was used to co-stimulate NFAT, as it has been shown previously that TPA and ionomycin elicit synergistic stimulation of NFAT luciferase activity (Northrop J P, Ullman K S, Crabtree G R. Characterization of the nuclear and cytoplasmic components of the lymphoid-specific nuclear factor of activated T cells (NF-AT) complex. J Biol Chem 1993 Feb. 5; 268(4):2917-23).

Data set [3] has as its system p65/NFκB transcriptional activity in CaSki cells. Nature of the data set: p65 luciferase reporter assay. The data set is classed as cell-based. The settings on record: 10 or 15 μM, 24 hours (FIG. 15). The method, then: (§3) To assay for AP-1 and p65 luciferase activities, 40 000 CaSki cells were plated in 24-well plates, and transfected with 50 ng of an API luciferase reporter (containing four copies of the AP-1 binding site) or 50 ng of a p65 luciferase reporter (containing five copies of the p65 binding site, Clontech, CA, USA) and 5 ng pRL-TK (encoding Renilla luciferase, Promega), using 0.16 μl TransFectin™ lipid reagent (Bio-Rad, Hercules, Calif., USA). The following day cells were treated with 10 or 15 μM Compound A. Luciferase activity was measured 24 hours after Compound A treatment using the Dual-LuciferaseR Reporter assay system (Promega, Madison, Wis., USA), according to the manufacturers' instructions. Luciferase readings were measured using the Veritas™ microplate luminometer (Promega) and luciferase readings were normalised to Renilla luciferase in the same extract.

The subject of data set [4] is p65 nuclear import (Kpnβ1 cargo protein). Nature of the data set: Percentage of nuclear and cytoplasmic p65 (FIG. 4). In kind it is cell-based.
A further data set deals with CaSki cells. Nature of the data set: Cell cycle analysis. The data set is classed as cell-based. The settings on record: 24 hours (FIGS. 24 and 25). How it is done:
CaSki cells were plated in 60 mm dishes and treated with the appropriate concentration of Compound A. Cells were harvested 24 hours after treatment, and fixed in 100% ethanol, after which they were stained with Propidium Iodide and the cell cycle profiles analysed using a BD flow cytometer (BD Biosciences, NJ, USA). Data analysis was performed using ModFit 3.3 software.

Data set [5] has as its system AP-1 transcriptional activity in CaSki cells. Nature of the data set: AP-1 luciferase reporter assay. In kind it is cell-based. The settings on record: 10 or 15 μM, 24 hours (FIG. 15). How it is done:
as §3

The nature of another data set: Solubility. The data set is classed as physicochemical. The following applies: in dimethylsulfoxide (DMSO).
Data set [6] relates to PARP cleavage in CaSki cells. The data set can be described thus: PARP cleavage analysis by Western Blot. The data set is classed as cell-based. The settings on record: IC50 and twice the IC50 (FIG. 5), varying concentrations 12 hours (FIG. 26). The method, then:
CaSki cells were treated with varying concentrations of Compound A for 12 hours, following which cells and cell floaters were harvested using RIPA buffer (10 mM Tris-Cl, pH 7.4, 150 mM NaCl, 1% sodium deoxycholate, 0.1% SDS, 1% Triton X-100, 1× complete protease inhibitor cocktail (Roche, Mannheim, Germany)) and Western Blot analysis performed, using a rabbit anti-Parp1/2 (H-250) antibody (sc-7150).
A general note: Immunoblotting shows a protein as a band on a membrane.

Another data set relates to HeLa and KYSE30 cells. Nature of the data set: Anchorage-independent colony formation. In kind it is cell-based. The settings on record: 10 μM; polyheme-coated plates, 9 days (FIG. 23). How it is done:
The anchorage-independent proliferation of cancer cells was measured in response to Compound A treatment, as cells grown in this manner are more representative of tumour cells in vivo. Cells were grown on polyheme-coated plates and cell proliferation monitored 9 days after treatment, using MTT assays.

The test system of a further data set is WHCO6 tumours. Nature of the data set: Xenograft tumour model. In kind it is in vivo. The settings on record: female nude mice, 50 mg/kg i.p. every 2-3 days for 3 weeks (FIG. 28). How it is done:
WHCO6 cells were harvested and resuspended in PBS. For tumour inoculation, cancer cells (5×10^6 per mouse) were s.c. implanted into the hind flanks of female nude mice. Once tumours had reached a palpable size, drug treatment was initiated, where tumour-bearing mice were randomized and dosed i.p. with either vehicle (DMSO) or Compound A (50 mg/kg), every 2-3 days for 3 weeks. Tumour volumes were measured twice a week, using calipers, and tumour volume estimated using the following formula: volume=(length×width×width)/2. Mice were sacrificed 3 weeks after the commencement of drug treatment.

For data set [7], the system named is DMB and FG0 non-cancer fibroblast cells. The data set can be described thus: Cell proliferation assay (MTT), non-cancer cells. The data set is classed as cell-based. How it is done: as §1, §2
Another data set has as its system cancer cell lines. The data set can be described thus: MTT cell viability, summary statements over panels of cancer cell lines. In kind it is cell-based. The settings on record: cervical, oesophageal, ovarian and breast cancer cell lines (Table 11); read-out: IC50. How it is done: (§4) Cells were plated in 96-well plates and treated with varying concentrations of a test compound for 48 hours, after which MTT dye, 3-(4,5-dimethylthiazol-2-yl)-2,5-diphenyltetrazolium bromide (Sigma), was added, and crystals solubilised 4 hours later using Solubilisation Reagent (10% SLS in 0.01 M HCl). Absorbencies were measured at 595 nm the following day using a BioTek microplate spectrophotometer (Winooski, Vt., USA) and IC50 curves were generated using GraphPad Prism.

The subject of data set [8] is non-cancer fibroblast cells. The data set can be described thus: MTT cell viability, summary statement for non-cancer cells. In kind it is cell-based. The method, then: as §4

“Also recorded” adds a separate entry of the source.

The IC50 is the concentration that inhibits the measured activity by half. `CN(C)CCCn1c(N)c(-c2nc3ccccc3[nH]2)c2nc3ccccc3nc21` [Compound A, 3-(1H-benzimidazol-2-yl)-1-(3-dimethylaminopropyl)pyrrolo[5,4-b]quinoxalin-2-amine] came in with a cell death in [1] (10 μM (FIG. 22)) of 100%. Besides, the “cell death in proliferation assay” value in data set [1] (10 and 15 μM, within 24 hour (FIG. 21 A-D)) is “complete cell death”. Also, the “NFAT activation (NFAT-luciferase reporter)” value in [2] is “significantly diminished NFAT activation”. Besides, the p65 luciferase activity result in data set [3] is reported as “decreased in a dose-dependent manner”. Moreover, the “nuclear import of Kpnβ1 cargo protein (percentage of nuclear p65 relative to cytoplasmic p65)” value in [4] is recorded as “inhibit the nuclear import of Kpnβ1 cargo protein”. Also, in the data set on CaSki cells, the “percentage of cells in the G1 stage of the cell cycle” value is given as “increase”; the “percentage of cells in the S and G2/M stages” value was “decrease”. Also, the AP-1 luciferase activity entry in data set [5] is “decreased in a dose-dependent manner”. In addition, the solubility result in “Solubility” is recorded as “soluble”. The “PARP cleavage as an indicator of apoptosis” value in data set [6] is “induce cancer cell death via apoptosis; also recorded: increase in the levels of the 89 kDa cleaved PARP”. The anchorage-independent colony formation entry in the data set with HeLa and KYSE30 cells is given as “unable to form colonies”. The “tumour growth (normalised tumour volume)” value in the data set with WHCO6 tumours is recorded as “significantly inhibits tumour growth”. Moreover, in [7] (10 μM (FIGS. 21 E and F)), the cell proliferation entry is “proliferated relatively normally”. Besides, in data set [7] (15 μM), the “time within which cell death occurred” value was in the range of 24 to 48 h. For the same molecule, in the data set with cancer cell lines, the IC50 was approximately 10 µM. In data set [8], the IC50 fell in the range of 20 to 30 µM.

Source of the values: US10220033B2, “Substituted benzoxazepine for cancer therapy” (University of Cape Town, priority 2014, dated 2019).
